Source: patent US20080299076A1, “Compunds and compositions that cause non-apoptotic cell death and uses thereof” (priority 2006, published 2008)

Legend:
Caspase-3 = Caspase-3 cleavage (western blot); type: cell-based
[1] = Stability in human plasma; type: in vitro ADME; settings: after five hours
Experimental: The stability of erastin in mouse and human liver microsomes and in mouse and human plasma was assessed. In both human and mouse liver microsomes, after 1 hr, ˜30% of erastin was converted to its primary metabolite (the O-de-ethylated product). In both human and mouse plasma, only ˜10% of erastin was lost after five hours. Thus, erastin has sufficient metabolic and plasma stability to be tested in vivo in mice.

VDAC2, VDAC3 = assay: VDAC isoform levels after erastin treatment (quantitative 2D western); type: cell-based, human
Source text: Quantitative western blot of VDAC/eif4E protein ratio in engineered BJ-derived cells. (b) Identification of VDAC isoforms in BJ-TERT/LT/ST/RAS^V12 cells using 2-D electrophoresis. i) VDAC1, VDAC2 and VDAC3 were detected by a rabbit polyclonal VDAC antibody (Abcam/ab3434), ii) VDAC1 was detected by a mouse monoclonal VDAC1 antibody (Calbiochem/529534), iii) VDAC2 was detected by a goat polyclonal VDAC2 antibody (Abcam/ab22170), iv) An illustration of 3 isoforms of VDAC separated by the 2-D gel electrophoresis. (c) BJ-TERT/LT/ST/RAS^V12 cells were treated with erastin for the indicated time and levels of each VDAC isoform determined by quantitative 2D western. (d,e) Infection with VDAC3 shRNA protects erastin-treated cells. 293T cells were transfected with shRNA-plasmid construct using FuGene and viral supernatant transferred to HT1080 cells, and treated with erastin dilutions and viability measured using Trypan Blue exclusion. […] (f) Quantitative RT-PCR measurements of mRNA levels of the 3 VDAC isoforms after infection with shVDAC3. Knockdown was determined by normalizing to the levels in the shGFP-infected control. […] (g) Mitochondria were purified from yeast expressing murine VDAC3 in place of yeast VDAC, and the rate of NADH uptake determined in the presence or absence of erastin, or in shocked mitochondria in which the outer membrane was disrupted. […]

[2] = system: vinblastine resistant CCRF-CEM derivative cells; assay: Cell death in taxol/vinblastine resistance panel; type: cell-based; settings: Homo sapiens
Experimental: (§1) In certain embodiments, the sensitivity to erastin, can be tested in cell lines that are resistant to taxol and vinblastine. The sensitivity of CCRF-CEM parental, and taxol and vinblastine resistant derivative cells to erastin was tested. […] Erastin analogues can be tested to ensure their effectiveness in inducing cell death in tumor cell line which are resistant to taxol or vinblastin, or other ant-tumor agents.

[3] = system: taxol resistant CCRF-CEM derivative cells; assay: Cell death in taxol/vinblastine resistance panel; type: cell-based; settings: Homo sapiens
Experimental: as §1

CCRF-CEM parental cells = assay: Cell death in taxol/vinblastine resistance panel; type: cell-based; settings: Homo sapiens
Experimental: as §1

[4] = system: BJ-TERT/LT/ST/RAS^V12 cells; assay: Oxidative species detection (H2DCF-DA, flow cytometry); type: cell-based, human; settings: 4.6 μM erastin
Experimental: BJ-TERT/LT/ST/RAS^V12 cells (shown in histogram plots and in line graph, dark line) and BJ-TERT cells (shown in line graph only, light line) were treated with 4.6-μM erastin and the level of intracellular oxidative species determined using 2′7′-dichlorodihydrofluorescein diacetate (H2DCF-DA, Molecular Probes) and flow cytometry. Cells were seeded at 3×10^5 cells per dish in 60-mm dishes and allowed to grow overnight. Cells were incubated with 10 μM of H2DCF-DA for 10 minutes, harvested by trypsinization, washed twice with cold PBS, re-suspended in 100 μl of PBS and incubated with 5 μl of 50-μg/ml propidium iodide for 10 minutes. 400 μl of PBS was added and the solution analyzed by flow cytometry (FACSCalibur-Becton-Dickinson).
2′7′-dichlorodihydrofluorescein diacetate (H2DCF-DA, Molecular Probes) was used to measure oxidative species by flow cytometry. Non-fluorescent H2DCF-DA is cleaved by endogenous esterases and then is oxidized to generate fluorescent dichlorofluorescein (DCF). BJ-TERT/LT/ST/RAS^V12 and BJ-TERT cells were seeded at 3×10^5 cells per dish in 60-mm dishes and allowed to grow overnight. Cells were treated with 4.6 μM erastin for 2, 4, 6, 8, 10 and 12 h. […] 400 μl of PBS was added and the solution analyzed by flow cytometry (FACSCalibur-Becton-Dickinson). FL1-H indicates DCF fluorescence units detected.

With `CCOc1ccccc1-n1c(C(C)N2CCN(C(=O)COc3ccc(Cl)cc3)CC2)nc2ccccc2c1=O` (centres unmarked) [erastin, 2-(1-{4-[2-(4-Chloro-phenoxy)-acetyl]-piperazin-1-yl}-ethyl)-3-(2-ethoxy-phenyl)-3H-quinazolin-4-one] the Caspase-3 cleavage (Caspase-3) was “not cleaved”, the compound lost [1] was ~10% and the VDAC3 protein level (VDAC2, VDAC3; after 8 hours of erastin treatment) was “no longer detectable”. For the same molecule, the VDAC2 protein level (VDAC2, VDAC3; after 10 hours of erastin treatment) was “undetectable”, the IC50 [2] was 8 µM and the IC50 [3] was 7 µM. The IC50 (CCRF-CEM parental cells) was 11 µM and the “Formation of oxidative species” value [4] was “oxidizing species were detected”.
